Laboratory results from patent publication US7396837B2, “Antitumoral analogs of lamellarins” (Pharma Mar, S.A.U., priority 2002, dated 2008).
Like-named read-outs stand apart in the source and are kept apart here.

How the values were obtained:
Format in all cases: cell-based
K-562 = test: SRB colorimetric cell growth inhibition assay, K-562; conditions: Homo sapiens; for GI50: GI=growth inhibition, read-out: GI50 K-562; for IC (TGI): total growth inhibition (cytostatic effect), read-out: TGI K-562; for CC50: cell killing (cytotoxic effect)
How it was run: (§1)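 In this cytotoxicity screen, compound stays in contact with the cultured human cancer cells without washout; sulforhodamine B binding gives the measure of cell number, and endpoints separate growth inhibition from cytostasis (TGI) and killing (LC).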

A-549 = test: SRB colorimetric cell growth inhibition assay, A-549; conditions: Homo sapiens; for GI50: GI=growth inhibition, read-out: GI50 A-549; for IC (TGI): total growth inhibition (cytostatic effect), read-out: TGI A-549; for CC50: cell killing (cytotoxic effect)
How it was run: as §1

SK-MEL-28 = test: SRB colorimetric cell growth inhibition assay, SK-MEL-28; conditions: Homo sapiens; for GI50: GI=growth inhibition, read-out: GI50 MEL-28; for IC (TGI): TGI=total growth inhibition (cytostatic effect), read-out: TGI MEL-28; for CC50: LC=cell killing (cytotoxic effect)
How it was run: as §1

HT-29 = test: SRB colorimetric cell growth inhibition assay, HT-29; conditions: Homo sapiens; for GI50: GI=growth inhibition, read-out: GI50 HT-29; for IC (TGI): total growth inhibition (cytostatic effect), read-out: TGI HT-29; for CC50: cell killing (cytotoxic effect)
How it was run: as §1

LoVo = test: SRB colorimetric cell growth inhibition assay, LoVo; conditions: Homo sapiens, LoVo; for CC50: cell killing (cytotoxic effect); for GI50: GI=growth inhibition, read-out: GI50 LOVO; for IC (TGI): total growth inhibition (cytostatic effect), read-out: TGI LOVO
How it was run: as §1

LoVo-Dox = test: SRB colorimetric cell growth inhibition assay, LoVo-Dox (MDR); conditions: Homo sapiens; for GI50: GI=growth inhibition, read-out: GI50 LOVO-DOX; for IC (TGI): total growth inhibition (cytostatic effect), read-out: TGI LOVO-DOX; for CC50: cell killing (cytotoxic effect)
How it was run: as §1

DU-145 = test: SRB colorimetric cell growth inhibition assay, DU-145; conditions: Homo sapiens; for GI50: GI=growth inhibition, read-out: GI50 DU-145; for IC (TGI): TGI=total growth inhibition (cytostatic effect), read-out: TGI DU-145; for CC50: LC=cell killing (cytotoxic effect)
How it was run: as §1

LNCaP = test: SRB colorimetric cell growth inhibition assay, LNCaP; conditions: Homo sapiens, LNCaP
How it was run: as §1

IGROV = test: SRB colorimetric cell growth inhibition assay, IGROV; conditions: Homo sapiens, IGROV; for CC50: LC=cell killing (cytotoxic effect); for GI50: GI=growth inhibition, read-out: GI50 IGROV; for IC (TGI): TGI=total growth inhibition (cytostatic effect), read-out: TGI IGROV
How it was run: as §1

IGROV-ET = test: SRB colorimetric cell growth inhibition assay, IGROV-ET (ET-743 resistant); conditions: Homo sapiens; for GI50: GI=growth inhibition, read-out: GI50 IGROV-ET; for IC (TGI): TGI=total growth inhibition (cytostatic effect), read-out: TGI IGROV-ET; for CC50: LC=cell killing (cytotoxic effect)
How it was run: as §1

PANC-1 = test: SRB colorimetric cell growth inhibition assay, PANC-1; conditions: Homo sapiens; for GI50: GI=growth inhibition, read-out: GI50 PANC-1; for IC (TGI): total growth inhibition (cytostatic effect), read-out: TGI PANC-1; for CC50: cell killing (cytotoxic effect)
How it was run: as §1

[1] = SRB colorimetric cell growth inhibition assay, H-MEC-1; conditions: human
Excerpt: (§2) Inhibition of Cell Growth by Colorimetric Assay.
(§3) A colorimetric type of assay, using sulforhodamine B (SRB) reaction has been adapted for a quantitative measurement of cell growth and viability (following the technique described by P. A. Skehan, et al., J. Natl. Cancer Inst. 1990, 82, 1107-1112).
(§4) This form of assay employs 96 well cell culture microplates of 9 mm diameter (T. Mosmann et al., J. of Immunological Methods 1983, 65, 55-63; G. T. Faircloth et al., J. of Tissue and Culture Methods 1988, 11, 201-205).
(§5) Most of the cell lines are obtained from American Type Culture Collection (ATCC) derived from different human cancer types.
(§6) The values for mean +/− SD of data from triplicate wells are calculated. Some parameters for cellular responses can be calculated: GI=growth inhibition, TGI=total growth inhibition (cytostatic effect) and LC=cell killing (cytotoxic effect).

H-MEC-1 = test: as above; conditions: Homo sapiens, HMEC-1, H-MEC-1; for GI50: GI=growth inhibition; for IC (TGI): TGI=total growth inhibition (cytostatic effect), read-out: TGI H-MEC-1
Excerpt: as §2, §3, §4, §5, §6

SK-BR-3 = test: SRB colorimetric cell growth inhibition assay, SK-BR-3; conditions: Homo sapiens, SK-BR-3, SK-BR-3; for GI50: GI=growth inhibition, read-out: GI50 SK-BR-3; for CC50: LC=cell killing (cytotoxic effect), read-out: LC50 SK-BR-3; for IC (TGI): TGI=total growth inhibition (cytostatic effect), read-out: TGI SK-BR-3
How it was run: as §1

SKOV-3 = test: SRB colorimetric cell growth inhibition assay, SKOV-3; conditions: Homo sapiens; for GI50: SK-OV-3, SKOV-3, GI=growth inhibition, read-out: GI50 SKOV-3; for CC50 / IC (TGI): SK-OV-3, SKOV-3; for CC50: LC=cell killing (cytotoxic effect), read-out: LC50 SKOV-3; for IC (TGI): TGI=total growth inhibition (cytostatic effect), read-out: TGI SKOV-3
How it was run: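 Growth and viability quantified by sulforhodamine B staining in 96-well microplates. Triplicate wells give mean ± SD; derived endpoints are GI, TGI (cytostatic) and LC (cytotoxic).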

[2] = K562, K-562, read-out: LC50 K-562
[3] = A549, A-549, read-out: LC50 A-549
[4] = SK-MEL-28, MEL-28, read-out: LC50 MEL-28
[5] = HT-29, HT-29, read-out: LC50 HT-29
[6] = LOVO-DOX, read-out: LC50 LOVO-DOX
[7] = DU-145, DU-145, read-out: LC50 DU-145
[8] = IGROV-ET, read-out: LC50 IGROV-ET
[9] = PANC-1, PANC-1, read-out: LC50 PANC-1
[10] = H-MEC-1 cells, H-MEC-1, LC=cell killing (cytotoxic effect), read-out: LC50 H-MEC-1

Compound	GI50 (K-562; K562, K-562)	IC (TGI) (K-562; K562, K-562)	GI50 (A-549; A549, A-549)	IC (TGI) (A-549; A549, A-549)	GI50 (SK-MEL-28; SK-MEL-28, MEL-28)	IC (TGI) (SK-MEL-28; SK-MEL-28, MEL-28)	GI50 (HT-29; HT-29, HT-29)	IC (TGI) (HT-29; HT-29, HT-29)	GI50 (LoVo)	IC (TGI) (LoVo)	GI50 (LoVo-Dox; LOVO-DOX)	IC (TGI) (LoVo-Dox; LOVO-DOX)	GI50 (DU-145; DU-145, DU-145)	IC (TGI) (DU-145; DU-145, DU-145)	GI50 (IGROV)	IC (TGI) (IGROV)	GI50 (IGROV-ET; IGROV-ET)	IC (TGI) (IGROV-ET; IGROV-ET)	GI50 (PANC-1; PANC-1, PANC-1)	IC (TGI) (PANC-1; PANC-1, PANC-1)	further results
COc1cc(-c2c3n(c4c(=O)oc5cc(OC(=O)[C@@H](N)C(C)C)c(OC)cc5c24)CCc2c-3cc(OC)c(OC)c2OC(=O)[C@@H](N)C(C)C)ccc1OC(=O)[C@@H](N)C(C)C [Compound 128]	1.11 µM	2.98 µM	1.61 µM	3.23 µM	1.57 µM	3.03 µM	1.95 µM	3.54 µM	0.854 µM	1.92 µM	0.403 µM	1.49 µM	1.33 µM	2.48 µM	0.639 µM	1.98 µM	0.689 µM	2.26 µM	0.888 µM	2.31 µM	CC50 (K-562; K562, read-out: LC50 K-562, K-562): 8.01 µM; CC50 (A-549; A549, read-out: LC50 A-549, A-549): 6.45 µM; CC50 (SK-MEL-28; SK-MEL-28, read-out: LC50 MEL-28, MEL-28): 5.86 µM; CC50 (HT-29; HT-29, read-out: LC50 HT-29, HT-29): 6.44 µM; CC50 (LoVo; read-out: LC50 LOVO, LOVO): 4.3 µM; CC50 (LoVo-Dox; read-out: LC50 LOVO-DOX, LOVO-DOX): 4.66 µM; CC50 (DU-145; DU-145, read-out: LC50 DU-145, DU-145): 4.62 µM; GI50 (LNCaP; LN-caP, GI=growth inhibition, read-out: GI50 LN-caP): 1.26 µM; IC (TGI) (LNCaP; LN-caP, TGI=total growth inhibition (cytostatic effect), read-out: TGI LN-caP): 2.69 µM; CC50 (LNCaP; read-out: LC50 LN-caP, LN-caP, LC=cell killing (cytotoxic effect)): 5.71 µM; CC50 (IGROV; read-out: LC50 IGROV, IGROV): 5.7 µM; CC50 (IGROV-ET; read-out: LC50 IGROV-ET, IGROV-ET): 7.59 µM; CC50 (PANC-1; PANC-1, read-out: LC50 PANC-1, PANC-1): 5.99 µM; CC50 ([1]; LC50 H-MEC-1): 6.53 µM; GI50 (H-MEC-1): 1.53 µM; IC (TGI) (H-MEC-1): 3.16 µM
COc1cc(-c2c3c4cc(OC)c(OC(=O)[C@H](C)NC(=O)OC(C)(C)C)cc4oc(=O)c3n3ccc4c(OC(=O)[C@H](C)NC(=O)OC(C)(C)C)c(OC)c(OC)cc4c23)ccc1OC(=O)[C@H](C)NC(=O)OC(C)(C)C [Compound 97]	3.2 µM	6.86 µM	9.59 µM	9.59 µM	0.262 µM	4.71 µM	9.59 µM	9.59 µM	5.28 µM	9.59 µM	5.29 µM	9.59 µM	4.13 µM	9.59 µM	0.186 µM	1.94 µM	0.678 µM	3.33 µM	4.47 µM	9.59 µM	CC50 (K-562; [2]): 9.59 µM; CC50 (A-549; [3]): 9.59 µM; CC50 (SK-MEL-28; [4]): 9.59 µM; CC50 (HT-29; [5]): 9.59 µM; CC50 (LoVo; read-out: LC50 LOVO): 9.59 µM; CC50 (LoVo-Dox; [6]): 9.59 µM; CC50 (DU-145; [7]): 9.59 µM; GI50 (SK-BR-3): 1.23 µM; CC50 (SK-BR-3): 9.59 µM; IC (TGI) (SK-BR-3): 3.58 µM; CC50 (IGROV; read-out: LC50 IGROV): 7.54 µM; CC50 (IGROV-ET; [8]): 9.59 µM; CC50 (PANC-1; [9]): 9.59 µM; GI50 (SKOV-3): 6.01 µM; CC50 (SKOV-3): 9.59 µM; IC (TGI) (SKOV-3): 9.59 µM; CC50 [1, 10]: 9.59 µM; GI50 (H-MEC-1): 0.0337 µM; IC (TGI) (H-MEC-1): 0.0959 µM
COc1cc(-c2c3n(c4c(=O)oc5cc(OC(=O)[C@H](C)N)c(OC)cc5c24)CCc2c-3cc(OC)c(OC)c2OC(=O)[C@H](C)N)ccc1OC(=O)[C@H](C)N [Compound 96]	1.63 µM	4.43 µM	4.97 µM	9.2 µM	2.14 µM	4.43 µM	9.2 µM	9.2 µM	2.28 µM	9.2 µM	0.563 µM	2.07 µM	4.26 µM	9.2 µM	1.2 µM	3.01 µM	2.69 µM	5.6 µM	1.68 µM	5.65 µM	CC50 (K-562; [2]): 9.2 µM; CC50 (A-549; [3]): 9.2 µM; CC50 (SK-MEL-28; [4]): 9.18 µM; CC50 (HT-29; [5]): 9.2 µM; CC50 (LoVo; read-out: LC50 LOVO): 9.2 µM; CC50 (LoVo-Dox; [6]): 9.2 µM; CC50 (DU-145; [7]): 9.2 µM; GI50 (SK-BR-3): 0.417 µM; CC50 (SK-BR-3): 5.47 µM; IC (TGI) (SK-BR-3): 1.86 µM; CC50 (IGROV; read-out: LC50 IGROV): 7.54 µM; CC50 (IGROV-ET; [8]): 9.2 µM; CC50 (PANC-1; [9]): 9.2 µM; GI50 (SKOV-3): 4.2 µM; CC50 (SKOV-3): 9.2 µM; IC (TGI) (SKOV-3): 9.2 µM; CC50 [1, 10]: 9.2 µM; GI50 (H-MEC-1): 0.381 µM; IC (TGI) (H-MEC-1): 9.2 µM
